The values below are quoted from earlier work in patent US8629128B2, “Vitamin formulation” (priority 2005, dated 2014).

The conditions of data set [1]: oxidizing agents and sunlight.
Data set [2] has as its system calcium metabolism.
The test system of data set [3] is normal and malignant keratinocytes. As to conditions: normal and malignant keratinocytes in culture.

Take `CC1=C(/C=C/C(C)=C/C=C/C(C)=C/C(=O)O)C(C)(C)CCC1` [Tretinoin, (all-E)-3,7-dimethyl-9-(2,6,6-trimethyl-1-cyclohexen-1-yl)-2,4,6,8-nonatetraenoic acid]: the stability of tretinoin entry in data set [1] is “unstable in the presence of oxidizing agents and sunlight”.

Consider `C=C1/C(=C\C=C2/CCC[C@]3(C)[C@@H]([C@H](C)CCCC(C)(C)O)CC[C@@H]23)C[C@@H](O)C[C@@H]1O` [calcitriol, 1,25-dihydroxy Vitamin D3], for which the “effect on calcium metabolism” value in data set [2] is listed as “potent effect on calcium metabolism”.

As for `C=C1/C(=C\C=C2/CCC[C@]3(C)C([C@H](C)/C=C/[C@@H](O)C4CC4)CC[C@@H]23)C[C@@H](O)C[C@@H]1O` (stereo partly drawn) [Calcipotriene, (5Z,7E,22E,24S)-24-cyclopropyl-9,10-secochola-5,7,10(19), 22 tetraene-1α,3β,24-triol], in data set [3], the “induction of differentiation of keratinocytes” value is “induces the differentiation” and the “inhibition of proliferation of keratinocytes” value was “inhibits proliferation”.
